Assays:
K562 cells = assay: Cytolytic T-cell (CTL) killing of K562 cells, CytoTox96 assay; type: cell-based, human; details: for potentiation of cytolytic T-cell response: 6 days co-culture, FIG. 5A
Method: Cytotoxic activity was also measured and combined with a control where cultures were treated with anti-CD28 mAbs (5 μg/ml). After 6 days, cytolytic T-cells were harvested, washed twice and co-cultured with fresh K562 cells. Cytotoxcity was measured by the CytoTox96 non-radioative cytotoxicity assay from Promega (Southampton, UK).
(§1) Peripheral blood lymphocytes (PBLs) were isolated by Ficoll gradient centrifugation from Buffy coats, or from blood samples (60-120 cc) taken from healthy volunteers. Leukemic cells K562 were first treated with 50 ug/ml Mitomycin C (Sigma) for 1 hour in 5% CO2 incubator at 37° C. and then washed at least three times with RPMI 1640 to remove the presence of drug. Washed K562 cells and PBLs (1:5 ratio) were then resuspended in RPMI 1640 with 5% fetal calf serum, 1% penicillin-streptomycin and 1% L-glutamine. PBLs and leukemic cells were transferred into 24 well plate. […] Occassionally, PBLs would be preincubated with inhibitor for periods of time (i.e. 5-24 hours) prior to incubation with K562 cells. In either case, cell cultures were then allowed to incubate for 8 days in 5% CO2 incubator at 37° C. prior to an assessment of cytotoxic function. Over this period, the K562 cells die due to the treatment with mitomycin c.
For an assessment of cytotoxity, effector cells (PBLs) and fresh target cell K562 were added into 96 well plates at various ratios (50:1; 25:1 etc.). Culture medium, effector cells and target cells were added into separate wells as background controls. Cytotoxicity was assessed using a Cytotoxicity Assay kit (Promega) as outlined by the manufacturer.
Cytotoxicity was measured by CytoTox96® assay.

Peripheral T-cells = assay: T-cell proliferation in response to tumor cell line K562 (3H-thymidine incorporation); type: cell-based, human; details: 48 hours, mitomycin C treated K562; FIG. 4
Method: as §1

SMILES: [Cl-].[Li+] [Lithium Chloride]
- effect on cytolytic T-cell (CTL) killing of K562 cells (K562 cells; FIG. 6, inhibitor added at 1 mM and 5 mM): enhances

SMILES: O=C1NC(=O)C(c2ccccc2[N+](=O)[O-])=C1Nc1ccc(O)c(Cl)c1 [SB415286]
- increase in level of proliferative response to K562 (Peripheral T-cells): two-three fold
- potentiation of cytolytic T-cell response (K562 cells; 10 um, 50:1 effector target ratio): 5-6 fold
- potentiation of cytolytic T-cell response (K562 cells; 50 um, 25:1 ratio): 5-6 fold

Source: US20050075276A1, “Use of inhibitors of glycogen synthase-3 to augment CD28 dependent -T-cell responses” (priority 2003, published 2005)
